These are literature values, as cited in patent US20260097052A1, “NOVEL ORAL CANNABINOID FORMULATIONS” (Esolate Pharmaceuticals Ltd, priority 2023, published 2026).

The conditions of this data set: humans.

Regarding `C=C(C)[C@@H]1CCC(C)=C[C@H]1c1c(O)cc(CCCCC)cc1O` [CBD, cannabidiol], the Oral bioavailability result was “approximately 6%”.
